Test results from paper PMC10571041, “Activity of Single Insect Olfactory Receptors Triggered by Airborne Compounds Recorded in Self-Assembled Tethered Lipid Bilayer Nanoarchitectures” (ACS Applied Materials & Interfaces, 2023).

Target: T1, EcorOBP15-m1 (odorant binding protein) (Eupeodes corollae, UniProt A0A8F9RZG6, F82L)
T1 construct: recombinant protein expressed in E. coli
T1 sequence (A0A8F9RZG6 22-145 F82L): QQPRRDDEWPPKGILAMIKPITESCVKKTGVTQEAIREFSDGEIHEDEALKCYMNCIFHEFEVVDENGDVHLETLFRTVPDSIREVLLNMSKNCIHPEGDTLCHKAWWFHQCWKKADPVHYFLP
Test: competitive fluorescence displacement of 1-NPN

## CCCCCC(=O)OCC [ethyl hexanoate]
  Kd: 7.4 µM
